# Data from article PMC1624820, “Inhibition of secreted phospholipase A2 by neuron survival and anti-inflammatory peptide CHEC-9” (Journal of Neuroinflammation, 2006).
# Entries after “also recorded” stand apart in the source; their conditions may differ. Read-outs that look alike come from different tables or passages of the source.
# Columns and labels:
# sPLA2 group I [1] = assay: 10-pyrene fluorescence enzyme assay, sPLA2 group I (Lineweaver-Burke / Michaelis-Menton); format: biochemical, Naja mossambica; conditions: for Km: without inhibitor 18.80; for Km / Vmax: 5 nM sPLA2, 10-pyrene 2-7 μM, nonlinear regression of Vo; for Vmax: without inhibitor 21.67; for reduction of Vo with varied enzyme concentration: sPLA2 2, 6, 10 nM, CHEC-9 0.1, 1, 10 nM
# Experimental: (§1) Purified secreted phospholipase A2 group I from the venom of the Mozambique cobra (Naja mossambica) was obtained from Sigma. Blood was obtained from the trunk of 20 female Sprague Dawley rats (200–250 g) after decapitation, and by venipunture of 14 healthy adult humans of both sexes. Blood samples from 8 additional rats were collected following subcutaneous injections of 100 μg CHEC-9 or DMEM vehicle. These rats were placed in a standard rat restrainer during the collection period and the samples obtained via a tail nick. All specific procedures of this study were approved by both the Institutional Animal Care and Use Committee and by Institutional Review Board of Drexel University College of Medicine. Blood samples were treated with citrate-phosphate-dextrose anticoagulant (1:10, Sigma), and plasma prepared by centrifugation, before freezing at -80° until used in the enzyme assays. For the ex vivo studies, individual plasma samples were pooled from 3–7 rats or 3–5 humans.
# (§2) Enzyme assays were conducted at ambient temperature (22–25°) using a Victor 3 fluorescent reader (Perkin Elmer, Nutley NJ). The substrate was 1-Palmitoyl-2-Pyrenedecanoyl Phosphatidylcholine ("10-pyrene", Caymen Chemical, Ann Arbor MI) a substrate for all calcium dependent PLA2s with the exception of cPLA2 and PAF-AH. The substrate (supplied in chloroform) was dried under a nitrogen stream, quickly dissolved in ethanol, and stored at -20° prior to use. Substrate solutions were prepared in reaction buffer consisting of 50 mM tris (pH = 7.4), 0.1 M NaCl, 2 mM CaCl2, 0.25% fatty acid-free albumin (Sigma) and the CHEC-9 peptide at the indicated concentrations. CHEC-9 ([…]) was synthesized by Celtek, (Nashville, TN), purified and cross-linked as described previously, and aliquots stored in tris buffer or DMEM vehicles at -80°. The 10-pyrene substrate forms phospholipids vesicles in aqueous solutions [13], and upon hydrolysis, releases 10-pyrenyldecanoic acid. This product is fluorescent in the presence of albumin and was measured at 350 nm excitation, 405 nm emission. Plasma samples were 20% final concentration in the reaction mixture, and all enzyme reactions were initiated with the addition of the substrate solution to the sPLA2 containing samples. Kinetic parameters including the properties of CHEC-9 were determined by measuring the initial velocities (Vo) of enzyme reactions (within 2 minutes of initiation). […] This rate is proportional to the concentration of active enzyme in the plasma if product formation during this period is linear with respect to time (see Fig. 6). In most experiments, relative fluorescent units (RFU) were converted to product concentration using a pyrenyldecanoic acid standard curve (Molecular Probes, Eugene, OR). […] Individual reactions were carried out in duplicate or triplicate and kinetic curves were produced using 5–6 substrate concentrations, with or without peptide, reacted simultaneously. […] Km and Vmax and r^2 were determined with regression software (Prism) from Graphpad (San Diego, CA).
# (§3) The characteristics of CHEC-9 inhibition were determined using both classical characterization of inhibitor types, i.e., the direction of changes in Km and Vmax, and more recent reports that derive consistent relationships between the extent of enzyme inhibition and substrate concentration. […] We have repeated, combined, and rearranged some of their equations below in order to show the calculations used in the present experiments.
# (§4) KiNR is the apparent inhibition constant based on inhibition degree and is independent of inhibitor classification. This value varies predictably with substrate concentration for different inhibitor types. It is defined as: […]
# rat plasma sPLA2 = assay: 10-pyrene fluorescence enzyme assay, rat plasma sPLA2 (ex vivo); format: biochemical, rat (Sprague Dawley)
# Experimental: as §1
# Enzyme assays were conducted at ambient temperature (22–25°) using a Victor 3 fluorescent reader (Perkin Elmer, Nutley NJ). The substrate was 1-Palmitoyl-2-Pyrenedecanoyl Phosphatidylcholine ("10-pyrene", Caymen Chemical, Ann Arbor MI) a substrate for all calcium dependent PLA2s with the exception of cPLA2 and PAF-AH. The substrate (supplied in chloroform) was dried under a nitrogen stream, quickly dissolved in ethanol, and stored at -20° prior to use. Substrate solutions were prepared in reaction buffer consisting of 50 mM tris (pH = 7.4), 0.1 M NaCl, 2 mM CaCl2, 0.25% fatty acid-free albumin (Sigma) and the CHEC-9 peptide at the indicated concentrations. CHEC-9 ([…]) was synthesized by Celtek, (Nashville, TN), purified and cross-linked as described previously, and aliquots stored in tris buffer or DMEM vehicles at -80°. The 10-pyrene substrate forms phospholipids vesicles in aqueous solutions [13], and upon hydrolysis, releases 10-pyrenyldecanoic acid. This product is fluorescent in the presence of albumin and was measured at 350 nm excitation, 405 nm emission. Plasma samples were 20% final concentration in the reaction mixture, and all enzyme reactions were initiated with the addition of the substrate solution to the sPLA2 containing samples. Kinetic parameters including the properties of CHEC-9 were determined by measuring the initial velocities (Vo) of enzyme reactions (within 2 minutes of initiation). […] Km and Vmax and r^2 were determined with regression software (Prism) from Graphpad (San Diego, CA).
# The characteristics of CHEC-9 inhibition were determined using both classical characterization of inhibitor types, i.e., the direction of changes in Km and Vmax, and more recent reports that derive consistent relationships between the extent of enzyme inhibition and substrate concentration. […]
# Human Plasma sPLA2 = assay: 10-pyrene fluorescence enzyme assay, human plasma sPLA2 (ex vivo); format: biochemical; conditions: for Vmax: without inhibitor 2.07; for Km: without inhibitor 66.52
# Experimental: as §1, §2, §3, §4
# sPLA2 [2] = conditions: 100 μg CHEC-9 s.c.
# Experimental: as §1, with “For the ex vivo studies, individual plasma samples were pooled from 3–7 rats or 3–5 humans.” left out
# Enzyme assays were conducted at ambient temperature (22–25°) using a Victor 3 fluorescent reader (Perkin Elmer, Nutley NJ). […] This product is fluorescent in the presence of albumin and was measured at 350 nm excitation, 405 nm emission. […] Kinetic parameters including the properties of CHEC-9 were determined by measuring the initial velocities (Vo) of enzyme reactions (within 2 minutes of initiation). […] Km and Vmax and r^2 were determined with regression software (Prism) from Graphpad (San Diego, CA).
# cerebral cortex lesions = test system: cerebral cortex lesions; design: method as in PMID 15684658; conditions: rat, ref [6], cited from earlier work
# sPLA2 [3] = test system: sPLA2
# Experimental: as §2, §3
# sPLA2 group I [4] = assay: native polyacrylamide gel electrophoresis, enzyme migration; design: species or system Naja mossambica; conditions: for sPLA2 band on native gel, with peptide and substrate: 26 μM sPLA2, 40 μM CHEC-9, 560 μM substrate, 2 mM CaCl2, pH 7.4, room temperature 30 min, repeated four times
# Experimental: Polyacrylamide gradient gels (5–15%) were run with and without SDS or reducing agents using sPLA2 group I alone or after mixing the enzyme with different combinations of the components of the reaction mixture (or their solvents). Samples prepared for the native gels were 50 μl containing 26 μM sPLA2, 40 μM CHEC-9, 560 μM 1-Palmitoyl-2-Pyrenedecanoyl Phosphatidylcholine (substrate), and 2 mM CaCl2 in 20 mM tris buffer (pH = 7.4), incubated together at room temperature for 30 min. After incubation, the samples were evaporated to 20 μl. The samples were then mixed with sample buffer containing only glycerol and bromophenol blue in 0.1 M tris (pH = 6.8) and loaded onto the gels. Following electrophoresis, the gels were washed, fixed, and stained with silver reagent according to conventional methods. The native gel experiment, using different reactant combinations run side by side (Fig. 3), was repeated four times with the same result.
# [5] = CHEC-9 10.0 nM, 20% plasma, 10-pyrene 5–30 μM, pH 7.4, 22–25°
# [6] = CHEC-9 50.0 nM, 20% plasma, 10-pyrene 5–30 μM, pH 7.4, 22–25°
sequence,measurement,setting,value
"CHEASAAQC [CHEC-9, nonapeptide CHEC-9 (…), internal fragment of DSEP/Dermcidin/PIF, synthesized by Celtek, purified and cross-linked]",KiNR (apparent inhibition constant) vs substrate concentration,"sPLA2 group I [1]; 10-pyrene 2-7 μM, 5 nM sPLA2, CHEC-9 0.1, 1.0, 10 nM",varied inversely with the substrate concentration; also recorded: overall decline in this value with increasing substrate concentration for each peptide concentration
same,Km,"sPLA2 group I [1]; CHEC-9 0.1 nM, pH 7.4, 22–25°",10.8 µM
same,Vmax,"sPLA2 group I [1]; CHEC-9 0.1 nM, pH 7.4, 22–25°",11.54 nM/min/ng
same,Km,"sPLA2 group I [1]; CHEC-9 1.0 nM, pH 7.4, 22–25°",3.4 µM
same,Vmax,"sPLA2 group I [1]; CHEC-9 1.0 nM, pH 7.4, 22–25°",5.56 nM/min/ng
same,Km,"sPLA2 group I [1]; CHEC-9 10.0 nM, pH 7.4, 22–25°",2.26 µM
same,Vmax,"sPLA2 group I [1]; CHEC-9 10.0 nM, pH 7.4, 22–25°",4.04 nM/min/ng
same,change of Vmax and Km,sPLA2 group I [1]; CHEC-9 0.1-10 nM,reduced both the Vmax and Km of the enzyme reaction
same,effect of CHEC-9 below 10 nM on Vo at 2 nM or 6 nM sPLA2,"sPLA2 group I [1]; CHEC-9 lower than 10 nM, 2 nM or 6 nM sPLA2, 6 μM 10-pyrene",minimally effective or ineffective at 2 nM or 6 nM sPLA2
same,effect of CHEC-9 below 10 nM on Vo at 10 nM sPLA2,"sPLA2 group I [1]; CHEC-9 lower than 10 nM, 10 nM sPLA2, 6 μM 10-pyrene",produced consistent reductions in reaction velocity when used with 10 nM enzyme
same,Ki,"sPLA2 group I [1]; Group I sPLA2, uncompetitive, Ki = KiNR/(1+(Km/[S])), pH 7.4, 22–25°",4.02 ± 1.56 nM
same,effect on Vo at lowest substrate concentrations,sPLA2 group I [1]; lowest substrate concentrations,"minimally effective, ineffective, or even potentiated Vo"
same,velocity of the enzyme reaction (Vo),"sPLA2 group I [1]; nanomolar CHEC-9, substrate one-half Km or less",reduced by nanomolar concentrations of CHEC-9
same,reduction of Vo with varied enzyme concentration,sPLA2 group I [1]; 6 μM 10-pyrene,maximal reductions of Vo occurred at 10 nM sPLA2
same,reduction of Vo with varied enzyme concentration,"sPLA2 group I [1]; 6 μM 10-pyrene, listed as peptide","most effective at the highest concentration of sPLA2, and showed declining efficacy at the lower enzyme concentrations"
same,"type of inhibition, sPLA2 group I",sPLA2 group I [1]; substrate at one-half Km or less,most consistent with an uncompetitive (or anti-competitive) inhibitor of sPLA2 group I
same,"inhibition with increased substrate concentrations, rat plasma","rat plasma sPLA2; 25 nM CHEC-9, 20% plasma, increased substrate, mean of three reactions",this delay of the inhibition is not detected
same,"inhibition at very low substrate concentrations, rat plasma","rat plasma sPLA2; 25 nM CHEC-9, 20% plasma, very low substrate, mean of three reactions",delayed inhibition at the lower substrate concentrations
same,"inhibition at lower substrate concentrations, rat plasma","rat plasma sPLA2; lower substrate concentrations, product formation relatively stable",inhibition by CHEC-9 was readily observed
same,"effect at high substrate concentrations (substrate inhibition), rat plasma",rat plasma sPLA2; substrate > 25 μM,would sometimes reverse this inhibitory effect
same,"type of inhibition, human plasma","Human Plasma sPLA2; 20% plasma, 10-pyrene 5–30 μM",consistent with the properties of an uncompetitive inhibitor
same,Vmax,Human Plasma sPLA2; [5],1.42 μM/min/ml
same,Km,Human Plasma sPLA2; [5],40.8 µM
same,Vmax,Human Plasma sPLA2; [6],0.973 μM/min/ml
same,Km,Human Plasma sPLA2; [6],24.1 µM
same,"change of Km and Vmax, human plasma","Human Plasma sPLA2; CHEC-9 10, 50 nM, 20% plasma",Km and Vmax of plasma samples were both reduced by CHEC-9
same,Ki,"Human Plasma sPLA2; Human plasma sPLA2, 20% plasma, uncompetitive, Ki = KiNR/(1+(Km/[S])), pH 7.4, 22–25°",62 ± 13.2 nM
same,"effect on enzyme activity at lowest substrate concentrations, human plasma","Human Plasma sPLA2; CHEC-9 10, 50 nM",less effective or even exaggerated the reaction at the lower substrate concentrations
same,"effect on enzyme activity at lowest substrate concentrations, human plasma","Human Plasma sPLA2; CHEC-9 10, 50 nM, listed as peptide",exaggerated enzyme activity in human plasma at the lowest substrate concentrations used
same,level of active sPLA2 vs pre-injection,"sPLA2 [2]; restrained rats, n = 4, on average","holding the level of active enzyme, on average, near pre-injection values"
same,significance of sPLA2 reduction vs vehicle,"sPLA2 [2]; p < 0.05 by Mann Whitney test, n = 4 rats per group",significant differences at 30 and 60 minutes
same,duration of anti-inflammatory and neuron survival effects,cerebral cortex lesions; a subcutaneous injection after cerebral cortex lesions,at least 4 days
same,anti-inflammatory and neuron survival effects,cerebral cortex lesions; subcutaneous injection after cerebral cortex lesions,inhibit neuron death and aspects of the inflammatory response; also recorded: anti-inflammatory and neuron survival effects
same,specificity,sPLA2 [3]; plasma and venom-derived sPLA2,broad specificity
same,Ki,"sPLA2 [3]; read-out: Ki (individual experiments), individual experiments repeated 5 or more times, pH 7.4, 22–25°",< 100 nM
same,Ki,"sPLA2 [3]; read-out: Ki values (all cases), venom-derived sPLA2 group I and plasma of rats and humans",< 100 nM
same,type of inhibition (all enzyme sources),"sPLA2 [3]; venom-derived sPLA2 group I, plasma of rats and humans",uncompetitive (or anti-competitive) enzyme inhibitor
same,"sPLA2 band on native gel, with peptide and substrate",sPLA2 group I [4],absent or at least dramatically reduced
same,"sPLA2 band on native gel, with peptide and substrate",sPLA2 group I [4]; listed as peptide,disappeared or was markedly attenuated
same,"sPLA2 band on native gel, peptide alone","sPLA2 group I [4]; 26 μM sPLA2, 40 μM CHEC-9, no substrate, pH 7.4, room temperature 30 min",The same band appeared
